Source: publication PMC5407577, “Functional and genetic evidence that nucleoside transport is highly conserved in Leishmania species: Implications for pyrimidine-based chemotherapy” (International Journal for Parasitology: Drugs and Drug …, 2017)
Like-named read-outs stand apart in the source and are kept apart here.

Key:
LmexNT1 [1] = type: cell-based, Leishmania mexicana
Protocol: (§1) Using the standard uptake technique as described for T. brucei and Leishmania species ([Wallace et al., 2002], [Al-Salabi and De Koning, 2005], [Gudin et al., 2006]), the dose- or time-dependent uptake of radiolabeled permeants was investigated.
(§2) Briefly, cells in the mid-to-late logarithmic stage of growth were harvested by centrifugation for 10 min at 1500×g. The cells were washed twice with transport assay buffer (AB: 33 mM HEPES, 98 mM NaCl, 4.6 mM KCl, 0.55 mM CaCl2, 0.07 mM MgSO4, 5.8 mM NaH2PO4, 0.3 mM MgCl2, 23 mM NaHCO3, 14 mM glucose, pH 7.3), resuspended at a density of 10^8 cells ml^−1 in AB, and left for 20–30 min at room temperature to recover from centrifugation stress. One hundred microliters of cell suspension was incubated at ambient temperature for a predetermined time with 100 μl radiolabeled test compound, in the presence or absence of unlabeled substrate or other competitive inhibitors. The incubation was terminated by the addition of ice-cold stop solution (AB containing saturating levels, usually 10 mM, of unlabeled permeant) and centrifugation through oil for 1 min at 13,000 × g. […] Radioactivity was determined by liquid scintillation counting in a Beckman LS6000 TA scintillation counter. Saturation data, inhibition data, and time courses were plotted to equations for linear or non-linear regression (hyperbolic or sigmoid curves), as appropriate. All experiments were performed in triplicate and on at least three independent occasions.

LmexUU1 = type: cell-based, Leishmania mexicana
Protocol: as §1, §2

LmexNT1 [2] = type: cell-based, Leishmania mexicana; remark: listed apart in the source
Protocol: as §1, §2
L. donovani is known to express one pyrimidine nucleoside transporter, LdNT1, which also transports adenosine ([Vasudevan et al., 1998], [De Koning et al., 2005]). In order to investigate whether this model held true for L. mexicana, the uptake of [^3H]-thymidine was studied. […] Care was taken throughout this study that whenever inhibition constants (Ki) or Michaelis-Menten constants (Km) were determined the conditions used had been verified to be well within the linear range of uptake.

[3] = system: L. mexicana promastigotes WT; test: Alamar blue drug sensitivity assay, L. mexicana WT; type: cell-based, Leishmania mexicana; settings: Leishmania mexicana, 72 h, WT promastigotes, 72 h + 48 h with dye, n ≥ 4
Protocol: (§3) Sensitivity assays of Leishmania strains to various drugs using the viability dye resazurin (Alamar Blue) (Sigma-Aldrich) were performed using a protocol adapted from [Räz et al. (1997)], as described ([Al-Salabi et al., 2003], [Gould et al., 2008]). Pentamidine and diminazene were used as non-nucleoside controls and were obtained from Sigma-Aldrich, as were many purines, pyrimidines, and analogs, with the exceptions of 2-thiouridine and 4-thiouridine (TriLink BioTechnologies, San Diego, CA); 5′-deoxyuridine, and 2′-3′-dideoxyuridine (Carbosynth, Compton, UK); 5-fluoro-2′-deoxyuridine (Fluka); and 2-thiouracil (ICN Biomedicals, Cambridge, UK). A preliminary promastigote culture was diluted to a density of 2 × 10^6 cells/ml, of which 100 μl was added to wells of 96-well plates pre-loaded with 100 μl of doubling dilutions of test compounds, resulting in a final density of 1 × 10^6 cells/ml; the dilutions were over 2 rows of the plate (23 concentrations), with the last well containing only medium and serving as the no-drug control. The plates were incubated at 25 °C for 72 h before adding the Alamar Blue dye (20 μl of 12.5 mg resazurin sodium salt (Sigma) in 100 ml phosphate buffered saline (PBS; pH 7.4)). Since Leishmania parasites metabolize the Alamar Blue dye slower than trypanosomes ([Gould et al., 2008]), the cells were incubated with the dye for a further period of 48 h before measuring the fluorescence, using a FLUOstar Optima fluorimeter (BMG Labtech) at wavelengths of 544 nm for excitation and 620 nm for emission. […] Each experiment was performed independently at least 4 times; statistical significance was determined using Student's unpaired t-test.

LmajNT1 = test: [3H]-thymidine uptake by L. major promastigotes; type: cell-based, Leishmania major
Protocol: as §1, §2
Subsequent experiments were performed with a 5 min incubation time.

[4] = system: L. major promastigotes WT; test: Alamar blue drug sensitivity assay, L. major WT; type: cell-based, Leishmania major; settings: Leishmania major, WT promastigotes, 72 h + 48 h with dye, n ≥ 4
Protocol: as §3

Lmex5FURes = test: microbe, parasite or virus in culture; type: cell-based, Leishmania mexicana; settings: for EC50: Leishmania mexicana; for RF (Resistance Factor = IC50 (resistant clone)/IC50 (WT)): Lmex5FURes vs L. mexicana WT
Protocol: as §3

Lmex5F2′dURes = test: microbe, parasite or virus in culture; type: cell-based, Leishmania mexicana; settings: for EC50: Leishmania mexicana; for RF (Resistance Factor = IC50 (resistant clone)/IC50 (WT)): Lmex5F2′dURes vs L. mexicana WT
Protocol: as §3

Lmaj5F2′dURes = test: microbe, parasite or virus in culture; type: cell-based, Leishmania major; settings: for EC50: Leishmania major; for RF (Resistance Factor = IC50 (resistant clone)/IC50 (WT)): Lmaj5F2′dURes vs L. major WT
Protocol: as §3

Lmaj5FURes = test: microbe, parasite or virus in culture; type: cell-based, Leishmania major; settings: for EC50: Leishmania major; for RF (Resistance Factor = IC50 (resistant clone)/IC50 (WT)): Lmaj5FURes vs L. major WT
Protocol: as §3

LmexNT1 [5] = test: [3H]-adenosine uptake by L. mexicana promastigotes; type: cell-based, Leishmania mexicana; settings: inhibition of 0.05 μM [3H]-adenosine uptake; read-out: Ki
Description: Using the standard uptake technique as described for T. brucei and Leishmania species ([Wallace et al., 2002], [Al-Salabi and De Koning, 2005], [Gudin et al., 2006]), the dose- or time-dependent uptake of radiolabeled permeants was investigated. The following radiolabels and specific activities were used: [^3H]-thymidine (Perkin Elmer; 56.6 Ci/mmol); [^3H]-adenosine (American Radiolabeled Chemicals UK; 40 Ci/mmol); [^3H]-uridine (American Radiolabeled Chemicals UK; 30 Ci/mmol); [^3H]-uracil (Perkin Elmer; 24.8 Ci/mmol); [^3H]-inosine (American Radiolabeled Chemicals UK; 20 Ci/mmol); [^3H]-5-fluorouracil (Moravek; 20 Ci/mmol).
as §2
We next investigated the transport of [^3H]-adenosine in L. mexicana promastigotes, which according to the efficient inhibition of [^3H]-thymidine by adenosine, should be taken up with high affinity.

[6] = inhibition of 0.25 μM [3H]-thymidine uptake (total LmajNT1.1 + LmajNT1.2), 5 min
[7] = inhibition of [3H]-uracil uptake, 4 min

SMILES: O=c1[nH]cnc2nc[nH]c12 [hypoxanthine]
- Ki (LmexNT1 [1]): > 1000 µM
- Ki (LmexUU1): > 500 µM
- Ki (LmexNT1 [2]): > 1000 µM

SMILES: O=c1ccn([C@@H]2O[C@H](CO)[C@@H](O)[C@H]2O)c(=S)[nH]1 [2-thiouridine]
- EC50 [3]: > 5000 µM
- Ki (LmajNT1): 765 ± 68 µM
- EC50 ([4]; 72 h): > 5000 µM

SMILES: O=c1[nH]c(=O)n([C@H]2C[C@H](O)[C@@H](CO)O2)cc1Br [5-bromo-2′-deoxyuridine]
- EC50 [3]: > 5000 µM
- EC50 ([4]; 72 h): > 5000 µM

SMILES: C[C@H]1O[C@@H](n2cc(F)c(=O)[nH]c2=O)[C@H](O)[C@@H]1O [5-fluoro,5′-deoxyuridine]
- Ki (LmajNT1; [6]): 168 ± 32 µM

SMILES: Cc1c[nH]c(=O)[nH]c1=O [thymine]
- Ki (LmajNT1; [6]): > 1000 µM
- Ki (LmexUU1; [7]): 560 ± 190 µM

SMILES: O=c1[nH]c(=O)n([C@H]2C[C@H](O)[C@@H](CO)O2)cc1I [5-iodo-2′-deoxyuridine]
- EC50 [3]: > 5000 µM
- EC50 ([4]; 72 h): > 5000 µM

SMILES: O=c1[nH]c(=O)n([C@@H]2O[C@H](CO)[C@@H](O)[C@H]2O)cc1Cl [5-chlorouridine]
- EC50 [3]: > 5000 µM
- EC50 ([4]; 72 h): > 5000 µM

SMILES: Nc1nc(=O)[nH]cc1F [5-fluorocytosine]
- EC50 [3]: > 5000 µM
- EC50 ([4]; 72 h): > 5000 µM

SMILES: N=C(N)c1ccc(/N=N/Nc2ccc(C(=N)N)cc2)cc1 [diminazene]
- EC50 ([3]; read-out: EC50): 7.4 ± 0.3 µM
- EC50 (Lmex5FURes): 7.2 ± 1.4 µM
- RF (Resistance Factor = IC50 (resistant clone)/IC50 (WT)) (Lmex5FURes): 0.97
- EC50 (Lmex5F2′dURes): 13.9 ± 1.9 µM
- RF (Resistance Factor = IC50 (resistant clone)/IC50 (WT)) (Lmex5F2′dURes): 1.8
- EC50 (Lmaj5F2′dURes): 24.6 ± 1.5 µM
- RF (Resistance Factor = IC50 (resistant clone)/IC50 (WT)) (Lmaj5F2′dURes): 2.5
- EC50 (Lmaj5FURes): 10 ± 1.6 µM
- RF (Resistance Factor = IC50 (resistant clone)/IC50 (WT)) (Lmaj5FURes): 1.02
- EC50 ([4]; read-out: EC50): 9.8 ± 0.3 µM

SMILES: O=c1ccn([C@@H]2O[C@H](CO)C[C@H]2O)c(=O)[nH]1 [3′-deoxyuridine]
- EC50 [3]: > 5000 µM
- EC50 ([4]; 72 h): > 5000 µM

SMILES: O=c1[nH]c(=O)n([C@@H]2O[C@H](CO)[C@@H](O)[C@H]2O)cc1I [5-iodouridine]
- EC50 [3]: > 5000 µM
- EC50 ([4]; 72 h): > 5000 µM

SMILES: O=C1C=CN([C@@H]2O[C@H](CO)[C@@H](O)[C@H]2O)C(=O)C1 [3-deazauridine]
- Ki (LmajNT1; [6]): 3670 ± 420 µM

SMILES: O=c1ccn([C@@H]2O[C@H](CF)[C@@H](O)[C@H]2O)c(=O)[nH]1 [5′-deoxy-5′-fluorouridine]
- EC50 [3]: > 5000 µM
- EC50 ([4]; 72 h): > 5000 µM

SMILES: N=C(N)c1ccc(OCCCCCOc2ccc(C(=N)N)cc2)cc1 [pentamidine]
- EC50 ([3]; read-out: EC50): 4.6 ± 0.2 µM
- EC50 (Lmex5FURes): 5 ± 0.6 µM
- RF (Resistance Factor = IC50 (resistant clone)/IC50 (WT)) (Lmex5FURes): 1.1
- EC50 ([4]; read-out: EC50): 3.3 ± 0.2 µM

SMILES: Nc1nc(=O)n([C@H]2C[C@H](O)[C@@H](CO)O2)cc1F [5F-2′dCtd, 5-Fluoro-2′-deoxycytidine]
- EC50 ([3]; read-out: EC50): 17.3 ± 1.8 µM
- EC50 (Lmex5FURes): 24 ± 0.9 µM
- RF (Resistance Factor = IC50 (resistant clone)/IC50 (WT)) (Lmex5FURes): 1.4
- EC50 (Lmex5F2′dURes): > 5000 µM
- RF (Resistance Factor = IC50 (resistant clone)/IC50 (WT)) (Lmex5F2′dURes): >290
- EC50 (Lmaj5F2′dURes): 3870 ± 621 µM
- RF (Resistance Factor = IC50 (resistant clone)/IC50 (WT)) (Lmaj5F2′dURes): 101
- EC50 (Lmaj5FURes): 17 ± 1.8 µM
- RF (Resistance Factor = IC50 (resistant clone)/IC50 (WT)) (Lmaj5FURes): 0.4
- EC50 ([4]; read-out: EC50): 38 ± 1.7 µM

SMILES: O=c1[nH]c(=O)n([C@@H]2O[C@H](CO)[C@@H](O)[C@H]2O)cc1Br [5-bromouridine]
- EC50 [3]: > 5000 µM
- EC50 ([4]; 72 h): > 5000 µM

SMILES: O=c1[nH]cc(Br)c(=O)[nH]1 [5-bromouracil]
- EC50 [3]: > 5000 µM
- EC50 ([4]; 72 h): > 5000 µM

SMILES: O=c1cn[nH]c(=O)[nH]1 [6-azauracil]
- EC50 [3]: > 5000 µM
- EC50 ([4]; 72 h): > 5000 µM

SMILES: Nc1ccn([C@@H]2O[C@H](CO)[C@@H](O)[C@H]2O)c(=O)n1 [cytidine]
- Ki (LmajNT1; [6]): 1150 ± 108 µM
- Ki (LmexNT1 [5]): 149 ± 18 µM
- Ki (LmexNT1 [1]; inhibition of 0.25 μM [3H]-uridine uptake in the presence of 1 mM uracil): 78.6 ± 15.1 µM
- Ki (LmexNT1 [2]; inhibition of 1 μM [3H]-thymidine uptake, 20 s): 82 ± 5 µM

SMILES: Nc1cc[nH]c(=O)n1 [cytosine]
- Ki (LmexUU1; [7]): > 5000 µM

SMILES: O=c1[nH]c(=O)n([C@H]2C[C@H](O)[C@@H](CO)O2)cc1Cl [5-chloro-2′-deoxyuridine]
- EC50 [3]: > 5000 µM
- EC50 ([4]; 72 h): > 5000 µM

SMILES: Cc1cn([C@H]2CC[C@@H](CO)O2)c(=O)[nH]c1=O [3′-deoxythymidine]
- Ki (LmajNT1; [6]): 1250 ± 44.5 µM

SMILES: C[C@H]1O[C@@H](n2ccc(=O)[nH]c2=O)[C@H](O)[C@@H]1O [5′dUrd, 5′-deoxyuridine]
- EC50 ([3]; read-out: EC50): 461 ± 80 µM
- EC50 ([4]; read-out: EC50): 525 ± 46 µM

SMILES: O=c1[nH]c(=S)ccn1[C@@H]1O[C@H](CO)[C@@H](O)[C@H]1O [4-thiouridine]
- EC50 [3]: > 5000 µM
- Ki (LmajNT1; [6]): 69 ± 18.1 µM
- EC50 ([4]; 72 h): > 5000 µM

SMILES: O=c1ccn([C@H]2CC[C@@H](CO)O2)c(=O)[nH]1 [2′,3′-dideoxyuridine]
- EC50 [3]: > 5000 µM
- Ki (LmajNT1): > 2500 µM
- EC50 ([4]; 72 h): > 5000 µM

SMILES: Nc1nc(=O)n([C@@H]2O[C@H](CO)[C@@H](O)[C@H]2O)cc1F [5-fluorocytidine]
- EC50 [3]: > 5000 µM
- EC50 ([4]; 72 h): > 5000 µM
